What was measured:
[1] = Study of aggregation by UV-Vis spectrophotometry; format: physicochemical; conditions: for change of UV spectrum with increasing ratio of PBS: starting from THF solutions
Summary of the method: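 Conjugates dissolved in THF and diluted with THF or THF-PBS mixtures (1:1, 1:3) at identical carotenoid concentration; separately, 2.5∙10−4 M DMSO stocks added to PBS to final 0.3125–5 μM carotenoid. UV-Vis spectra recorded to follow band shifts and fine-structure changes; DMSO-PBS solutions also examined by DLS.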

[2] = TEAC assay using ABTS radical; conditions: 6 min, ratio of slopes to trolox (melatonin dissolved in EtOH); for TEAC from DMSO: stock in DMSO diluted with PBS pH 7.4, 37 °C; for TEAC from THF: stock in THF diluted with PBS pH 7.4, 37 °C
[3] = Hydrodynamic diameter and colloidal stability of aggregates by dynamic light scattering; format: physicochemical; conditions: for mean size (hydrodynamic diameter) / zeta potential: 37 °C; for PDI: sd^2/mean size^2
Summary of the method: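 Hydrodynamic diameter (number-weighted; PDI as sd^2/mean size^2) and zeta potential were measured by DLS at 173° scattering angle. Samples, 0.3125–5 µM DMSO solutions diluted into PBS, were examined after 6 min incubation at 37 °C.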

[4] = 0.3125 μM in PBS from DMSO stock
[5] = 0.625 μM in PBS from DMSO stock

SMILES	change of UV spectrum with increasing ratio of PBS [1]	TEAC from THF [2]	mean size (hydrodynamic diameter) [3, 4] [nm]	zeta potential [3, 4] [mV]	PDI ([3]; 0.3125 μM in PBS)	mean size (hydrodynamic diameter) [3, 5] [nm]	zeta potential [3, 5] [mV]	PDI ([3]; 0.625 μM in PBS)	mean size (hydrodynamic diameter) ([3]; 1.25 μM in PBS from DMSO stock) [nm]	zeta potential ([3]; 1.25 μM in PBS from DMSO stock) [mV]	PDI ([3]; 1.25 μM in PBS)	mean size (hydrodynamic diameter) ([3]; 2.5 μM in PBS from DMSO stock) [nm]	zeta potential ([3]; 2.5 μM in PBS from DMSO stock) [mV]	PDI ([3]; 2.5 μM in PBS)	mean size (hydrodynamic diameter) ([3]; 3.75 μM in PBS from DMSO stock) [nm]	zeta potential ([3]; 3.75 μM in PBS from DMSO stock) [mV]	PDI ([3]; 3.75 μM in PBS)	mean size (hydrodynamic diameter) ([3]; 5 μM in PBS from DMSO stock) [nm]	zeta potential ([3]; 5 μM in PBS from DMSO stock) [mV]	PDI ([3]; 5 μM in PBS)	further results
CC1=C(/C=C/C(C)=C/C=C/C(C)=C/C=C/C=C(C)/C=C/C=C(\C)COC(=O)CCC(=O)O)C(C)(C)CCC1 [Compound 6, 8′-Apo-β-carotenol succinate]	did not cause much change	1.913	303.50	−8.2	0.0137	395.10	−10.2	0.0455	221.50	−17.7	0.0218	26.74	−30.5	0.0206	152.60	−12.3	0.0268	144.20	−27.5	0.0204	TEAC from DMSO [2]: 1.19
CC1=C(/C=C/C(C)=C/C=C/C(C)=C/C=C/C=C(C)/C=C/C=C(C)/C=C/C2=C(C)C[C@@H](OC(=O)CCC(=O)O)CC2(C)C)C(C)(C)C[C@H](OC(=O)CCC(=O)O)C1 [Compound 7, Zeaxanthin bissuccinate]	did not cause much change	2.090	1050.00	27.5	0.0407	429.30	23.4	0.0162	544.50	21.1	0.0294	195.60	17.9	0.0202	44.78	20.0	0.0267	238.20	20.1	0.0270	TEAC from DMSO [2]: 0.86
CC1=C(/C=C/C(C)=C/C=C/C(C)=C/C=C/C=C(C)/C=C/C=C(C)/C=C/C2=C(C)C[C@@H](OC(=O)CCC(=O)O)CC2(C)C)C(C)(C)CCC1 [Compound 8, β-Cryptoxanthin succinate]	bathochromic shift	1.827	11.04	34.1	0.0168	25.68	27.5	0.0307	31.94	21	0.0723	34.03	17.6	0.0360	468.90	2.55	0.0131	14.19	−0.01	0.0339	type of aggregates formed ([1]; from THF:aqueous solutions): J-type (head-to-tail) aggregates

Reference: paper PMC9369794 (Molecules, 2022)
